From patent US6087390A, “Derivatives of antifungal substance BE-31405 and process for producing the same” (Banyu Pharmaceutical Co., Ltd., priority 1997, dated 2000)
≈ marks a conversion by molar mass, not a printed value.

What follows are molecules tested on Candida albicans IFO1385 (assay: Antifungal activity: MIC against Candida albicans IFO1385 on yeast nitrogen base agar). Conditions: 48 h; 2 days of incubation at 37° C., yeast nitrogen base agar with 1% glucose and 0.25% dipotassium hydrogen phosphate; single use; read-out: MIC.
Type: cell-based
Protocol: ^b MICs were determined against Candida albicans IFO1385 after 2 days
of incubation of the test strain at 37° C. on yeastnitrogen base
agar (containing 1% glucose and 0.25% dipotassium hydrogen phosphate,

SMILES | MIC [µg/mL]
CCCCC(=O)OC1C2OC3(OCC45CC6C(C)CCC6C6(C=O)CC4C=C(C(C)C)C65C(=O)O)OC2OC1C3O (stereo not drawn) [Compound 10, 8a-[[[6-(n-valeryloxy)tetrahydro-7-hydroxy-2,5-methanofuro[2,3-d]-1,3-dioxol-2-yl]oxy]methyl]-4-formyl-4,4a,5,6,7,7a,8,8a-octahydro-7-methyl-3-(1-methylethyl)-1,4-methano-s-indacene-3a(1H)-carboxylic acid] | 6.25 (≈ 10.9 µM)
CCCCCOC1C2OC3(OCC45CC6C(C)CCC6C6(C=O)CC4C=C(C(C)C)C65C(=O)O)OC2OC1C3O (stereo not drawn) [Compound 41, 8a-[[[6-(pentyloxy)tetrahydro-7-hydroxy-2,5-methanofuro[2,3-d]-1,3-dioxol-2-yl]oxy]methyl]-4-formyl-4,4a,5,6,7,7a,8,8a-octahydro-7-methyl-3-(1-methylethyl)-1,4-methano-s-indacene-3a(1H)-carboxylic acid] | 1.56 (≈ 2.78 µM)
CCCCOC1C2OC3(OCC45CC6C(C)CCC6C6(C=O)CC4C=C(C(C)C)C65C(=O)O)OC2OC1C3O (stereo not drawn) [Compound 38, 8a-[[[6-(butoxy)tetrahydro-7-hydroxy-2,5-methanofuro[2,3-d]-1,3-dioxol-2-yl]oxy]methyl]-4-formyl-4,4a,5,6,7,7a,8,8a-octahydro-7-methyl-3-(1-methylethyl)-1,4-methano-s-indacene-3a(1H)-carboxylic acid] | 3.13 (≈ 5.73 µM)
CCCCCCOC1C2OC3(OCC45CC6C(C)CCC6C6(C=O)CC4C=C(C(C)C)C65C(=O)O)OC2OC1C3O (stereo not drawn) [Compound 47, 8a-[[[6-(hexyloxy)tetrahydro-7-hydroxy-2,5-methanofuro[2,3-d]-1,3-dioxol-2-yl]oxy]methyl]-4-formyl-4,4a,5,6,7,7a,8,8a-octahydro-7-methyl-3-(1-methylethyl)-1,4-methano-s-indacene-3a(1H)-carboxylic acid] | 1.56 (≈ 2.71 µM)
CC(C)CCOC1C2OC3(OCC45CC6C(C)CCC6C6(C=O)CC4C=C(C(C)C)C65C(=O)O)OC2OC1C3O (stereo not drawn) [Compound 44, 8a-[[[6-(isopentyloxy)tetrahydro-7-hydroxy-2,5-methanofuro[2,3-d]-1,3-dioxol-2-yl]oxy]methyl]-4-formyl-4,4a,5,6,7,7a,8,8a-octahydro-7-methyl-3-(1-methylethyl)-1,4-methano-s-indacene-3a(1H)-carboxylic acid] | 3.13 (≈ 5.58 µM)
CCCCCCC(=O)OC1C2OC3(OCC45CC6C(C)CCC6C6(C=O)CC4C=C(C(C)C)C65C(=O)O)OC2OC1C3O (stereo not drawn) [Compound 14, 8a-[[[6-(n-heptanoyloxy)tetrahydro-7-hydroxy-2,5-methanofuro[2,3-d]-1,3-dioxol-2-yl]oxy]methyl]-4-formyl-4,4a,5,6,7,7a,8,8a-octahydro-7-methyl-3-(1-methylethyl)-1,4-methano-s-indacene-3a(1H)-carboxylic acid] | 1.56 (≈ 2.59 µM)
CCCCCCCCCCOC1C2OC3(OCC45CC6C(C)CCC6C6(C=O)CC4C=C(C(C)C)C65C(=O)O)OC2OC1C3O (stereo not drawn) [Compound 50, 8a-[[[6-(decyloxy)tetrahydro-7-hydroxy-2,5-methanofuro[2,3-d]-1,3-dioxol-2-yl]oxy]methyl]-4-formyl-4,4a,5,6,7,7a,8,8a-octahydro-7-methyl-3-(1-methylethyl)-1,4-methano-s-indacene-3a(1H)-carboxylic acid] | 3.13 (≈ 4.96 µM)
CCCCCC(=O)OC1C2OC3(OCC45CC6C(C)CCC6C6(C=O)CC4C=C(C(C)C)C65C(=O)O)OC2OC1C3O (stereo not drawn) [Compound 13, 8a-[[[6-(n-hexanoyloxy)tetrahydro-7-hydroxy-2,5-methanofuro[2,3-d]-1,3-dioxol-2-yl]oxy]methyl]-4-formyl-4,4a,5,6,7,7a,8,8a-octahydro-7-methyl-3-(1-methylethyl)-1,4-methano-s-indacene-3a(1H)-carboxylic acid] | 3.13 (≈ 5.32 µM)

Same assay, conditions: 2 days of incubation at 37° C., yeast nitrogen base agar with 1% glucose and 0.25% dipotassium hydrogen phosphate; single use

SMILES | MIC [µg/mL]
COC1C2OC3(OCC45CC6C(C)CCC6C6(C=O)CC4C=C(C(C)C)C65C(=O)O)OC2OC1C3O (stereo not drawn) [SCH57404 (xylarin), reference compound] | 100 (≈ 198 µM)
CC(=O)O[C@@H]1[C@@H]2O[C@@]3(OC[C@@]45C[C@@H]6[C@H](C)CC[C@H]6[C@@]6(C=O)C[C@@H]4C=C(C(C)C)[C@@]56C(=O)O)O[C@@H]2O[C@@H]1[C@@H]3O [BE-31405] | 50 (≈ 93.9 µM)

Each molecule was assayed on a certain kind of fungus (assay: not given). Conditions: in vitro, acidic conditions.

SMILES | growth inhibitory (antifungal) activity under acidic conditions
CC(=O)O[C@@H]1[C@@H]2O[C@@]3(OC[C@@]45C[C@@H]6[C@H](C)CC[C@H]6[C@@]6(C=O)C[C@@H]4C=C(C(C)C)[C@@]56C(=O)O)O[C@@H]2O[C@@H]1[C@@H]3O [BE-31405] | shows growth inhibitory activity against a certain kind of fungus in vitro especially under acidic conditions

Same assay, conditions: neutral conditions

SMILES | antifungal activity under neutral conditions
CC(=O)O[C@@H]1[C@@H]2O[C@@]3(OC[C@@]45C[C@@H]6[C@H](C)CC[C@H]6[C@@]6(C=O)C[C@@H]4C=C(C(C)C)[C@@]56C(=O)O)O[C@@H]2O[C@@H]1[C@@H]3O [BE-31405] | the activity remarkably lowers under neutral conditions
